Marks after values point to notes of the source that are not given here.
Test system: cancer-related neuropathic pain
Assay: Open label dose escalation study of flupirtine, case studies JE and RM
Conditions: for SCORE WALKING / SCORE ENJOYMENT / SCORE TOTAL ACTIVITY / SCORE MOOD / SCORE RELATIONSHIPS / SCORE SLEEP / SCORE GENERAL ACTIVITY: pain interference 1-10; for SCORE WALKING: day 1 baseline 7; for SCORE ENJOYMENT / SCORE TOTAL ACTIVITY / AVERAGE PAIN LAST 24 HOURS: day 1 baseline 8; for SCORE NAUSEA / SCORE UN[…] GAIT: day 1 baseline 2; for SCORE POOR CONCENTRATION / WHO PERFORMANCE STATUS / SCORE SLEEP: day 1 baseline 3; for SCORE DROWSINESS / SCORE POOR APPETITE: day 1 baseline 4; for WORST PAIN SCORE LAST 24 HOURS: day 1 baseline 10; for neuropathic dwascriminant function score: >0 = neuropathic, day 1 baseline 2.448; for freezing pain score / score for increased pain due to touch / score for increased pain due to weather changes / squeezing pain score: day 1 baseline 0; for burning pain score: day 1 baseline 90; for electric pain score / for shooting pain score / numbness score / score for overly sensitive to touch / tingling pain score / unpleasant pain score: day 1 baseline 95; for overwhelming pain score: day 1 baseline 98; for SCORE GENERAL ACTIVITY: day 1 baseline 5
[1] = JE day 5, flupirtine 100 mg qid
[2] = JE day 5, flupirtine 100 mg qid, scale 1-4, day 1 baseline 1
[3] = JE day 5, flupirtine 100 mg qid, scale 1-4
[4] = JE day 5, flupirtine 100 mg qid, scale to 10, day 1 baseline 1
[5] = JE day 5, flupirtine 100 mg qid, scale to 10
[6] = JE day 6, flupirtine 100 mg qid
[7] = JE day 6, flupirtine 100 mg qid, day 1 baseline 1
[8] = JE day 6, flupirtine 100 mg qid, scale 1-4, day 1 baseline 1
[9] = JE day 6, flupirtine 100 mg qid, scale 1-4
[10] = JE day 6, flupirtine 100 mg qid, scale to 10, day 1 baseline 1
[11] = JE day 6, flupirtine 100 mg qid, scale to 10
[12] = JE day 7, flupirtine 100 mg qid
[13] = JE day 7, flupirtine 100 mg qid, day 1 baseline 1
[14] = JE day 7, flupirtine 100 mg qid, scale 1-4, day 1 baseline 1
[15] = JE day 7, flupirtine 100 mg qid, scale 1-4
[16] = JE day 7, flupirtine 100 mg qid, scale to 10, day 1 baseline 1
[17] = JE day 7, flupirtine 100 mg qid, scale to 10
[18] = JE day 8, flupirtine 100 mg qid
[19] = JE day 8, flupirtine 100 mg qid, day 1 baseline 1
[20] = JE day 8, flupirtine 100 mg qid, scale 1-4
[21] = JE day 8, flupirtine 100 mg qid, scale 1-4, day 1 baseline 1
[22] = JE, day after day 8 (discharge), flupirtine 100 mg QID with Oxycontin 40 mg/24 hrs, scale to 10

For `CCOC(=O)Nc1ccc(NCc2ccc(F)cc2)nc1N` [flupirtine], the “SCORE WALKING” value [1] was 1, the “SCORE ENJOYMENT” value [1] was 3 and the “SCORE TOTAL ACTIVITY” value [1] was 1. For the same compound, the “SCORE CONSTIPATION” value [2] was 4, the “SCORE INDIGESTION” value [2] was 1 and the “SCORE NAUSEA” value [3] was 1. The “SCORE UN[…] GAIT” value [3] was 4, the “SCORE POOR CONCENTRATION” value [3] was 4 and the “SCORE DROWSINESS” value [3] was 4. For the same compound, the “SCORE POOR APPETITE” value [3] was 4, the “LEAST PAIN LAST 24 HRS” value [4] was 0 and the “PAIN SCORE RIGHT NOW” value [4] was 0. For the same compound, the “AVERAGE PAIN LAST 24 HOURS” value [5] was 0, the “WORST PAIN SCORE LAST 24 HOURS” value [5] was 6 and the “WHO PERFORMANCE STATUS” value (JE day 6, flupirtine 100 mg qid, 0=fully active, 4=completely disabled) was 3. For the same compound, the “neuropathic dwascriminant function score” value [6] was −1.048, the freezing pain score [6] was 0 and the “score for increased pain due to touch” value [6] was 80. For the same compound, the “score for increased pain due to weather changes” value [6] was 0, the squeezing pain score [6] was 0 and the burning pain score [6] was 0. The electric pain score [6] was 0, the “for shooting pain score” value [6] was 0 and the numbness score [6] was 0. The “score for overly sensitive to touch” value [6] was 0, the tingling pain score [6] was 0 and the unpleasant pain score [6] was 0. For the same compound, the overwhelming pain score [6] was 40, the “SCORE MOOD” value [7] was 1 and the “SCORE RELATIONSHIPS” value [7] was 1. For the same compound, the “SCORE SLEEP” value [6] was 1, the “SCORE GENERAL ACTIVITY” value [6] was 1 and the “SCORE WALKING” value [6] was 1. The “SCORE ENJOYMENT” value [6] was 1, the “SCORE TOTAL ACTIVITY” value [6] was 1 and the “SCORE CONSTIPATION” value [8] was 1. For the same compound, the “SCORE INDIGESTION” value [8] was 1, the “SCORE NAUSEA” value [9] was 1 and the “SCORE UN[…] GAIT” value [9] was 3. For the same compound, the “SCORE POOR CONCENTRATION” value [9] was 2, the “SCORE DROWSINESS” value [9] was 3 and the “SCORE POOR APPETITE” value [9] was 2. The “LEAST PAIN LAST 24 HRS” value [10] was 0, the “PAIN SCORE RIGHT NOW” value [10] was 8 and the “AVERAGE PAIN LAST 24 HOURS” value [11] was 8. For the same compound, the “WORST PAIN SCORE LAST 24 HOURS” value [11] was 9, the “WHO PERFORMANCE STATUS” value (JE day 7, flupirtine 100 mg qid, 0=fully active, 4=completely disabled) was 3 and the “neuropathic dwascriminant function score” value [12] was −1.408. For the same compound, the freezing pain score [12] was 0, the “score for increased pain due to touch” value [12] was 0 and the “score for increased pain due to weather changes” value [12] was 0. For the same compound, the squeezing pain score [12] was 0, the burning pain score [12] was 0 and the electric pain score [12] was 0. For the same compound, the “for shooting pain score” value [12] was 0, the numbness score [12] was 0 and the “score for overly sensitive to touch” value [12] was 0. For the same compound, the tingling pain score [12] was 0, the unpleasant pain score [12] was 0 and the overwhelming pain score [12] was 0. The “SCORE MOOD” value [13] was 1, the “SCORE RELATIONSHIPS” value [13] was 1 and the “SCORE SLEEP” value [12] was 1. The “SCORE GENERAL ACTIVITY” value [12] was 1, the “SCORE WALKING” value [12] was 1 and the “SCORE ENJOYMENT” value [12] was 1. The “SCORE TOTAL ACTIVITY” value [12] was 1, the “SCORE CONSTIPATION” value [14] was 1 and the “SCORE INDIGESTION” value [14] was 1. The “SCORE NAUSEA” value [15] was 1, the “SCORE UN[…] GAIT” value [15] was 2 and the “SCORE POOR CONCENTRATION” value [15] was 1. The “SCORE DROWSINESS” value [15] was 3, the “SCORE POOR APPETITE” value [15] was 3 and the “LEAST PAIN LAST 24 HRS” value [16] was 0. The “PAIN SCORE RIGHT NOW” value [16] was 0, the “AVERAGE PAIN LAST 24 HOURS” value [17] was 0 and the “WORST PAIN SCORE LAST 24 HOURS” value [17] was 4. For the same compound, the “WHO PERFORMANCE STATUS” value (JE day 8, flupirtine 100 mg qid, 0=fully active, 4=completely disabled) was 3, the freezing pain score [18] was 0 and the “score for increased pain due to touch” value [18] was 0. The “score for increased pain due to weather changes” value [18] was 0, the squeezing pain score [18] was 0 and the burning pain score [18] was 0. The electric pain score [18] was 0, the “for shooting pain score” value [18] was 0 and the numbness score [18] was 90. The “score for overly sensitive to touch” value [18] was 0, the tingling pain score [18] was 0 and the unpleasant pain score [18] was 95. For the same compound, the overwhelming pain score [18] was 95, the “SCORE MOOD” value [19] was 8 and the “SCORE RELATIONSHIPS” value [19] was 1. The “SCORE SLEEP” value [18] was 10, the “SCORE GENERAL ACTIVITY” value [18] was 1* and the “SCORE WALKING” value [18] was 1*. The “SCORE ENJOYMENT” value [18] was 8, the “SCORE TOTAL ACTIVITY” value [18] was 1* and the other symptoms hallucinations [20] was 1-. For the same compound, the “SCORE CONSTIPATION” value [21] was 1*, the “SCORE INDIGESTION” value [21] was 1 and the other symptom twitch [21] was 1-. The “SCORE NAUSEA” value [20] was 1*, the “SCORE POOR CONCENTRATION” value [20] was 1* and the “SCORE DROWSINESS” value [20] was 1*. For the same compound, the “SCORE POOR APPETITE” value [20] was 1*, the “PAIN SCORE RIGHT NOW” value (JE day 8, flupirtine 100 mg qid, scale to 10, day 1 baseline 1) was 9 and the “AVERAGE PAIN LAST 24 HOURS” value (JE day 8, flupirtine 100 mg qid, scale to 10) was 7. The “WHO performance status score” value (JE, day after day 8 (discharge), flupirtine 100 mg QID with Oxycontin 40 mg/24 hrs, 0=fully active, 4=completely disabled) was 2, the “average pain score for the previous 24 hours” value [22] was 0 and the least pain [22] was 0. For the same compound, the worst pain [22] was 0 and the “WHO PERFORMANCE STATUS” value (RM day 2, flupirtine 100 mg qid, 0=fully active, 4=completely disabled) was 3.
